Data reported in EP0847397B1, “WATER-SOLUBLE C-RING ANALOGUES OF 20 (S)-CAMPTOTHECIN” (DR. REDDY'S RESEARCH FOUNDATION, priority 1996, dated 1997).

What was measured:
[1] = system: SK OV3; assay: NCI in vitro 60 human tumor cell line assay; assay type: cell-based; details: SK-OV-3, 48 h, read-out: Total Growth Inhibition (TGI)
Procedure: (§1) Each test compound was screened against a battery of 60 human cell lines obtained from eight organs. In a typical procedure, the cell suspensions that were diluted according to the particular cell type and the expected target cell density (5000-40,000 cells per well based on cell growth characteristics) were added into 96-well microtiter plates. Inoculates were allowed a preincubation period of 24h at 37°C. for stabilization. Dilutions at twice the intended test concentrations were added at time zero in 100-µl aliquots to microtiter plate wells. Usually test compounds were evaluated at five 10-fold dilutions. The highest well concentration used in the test is 10^-4M. The cells are then incubated in the presence of drug (the test compound) for further 48h in 5% CO2 atmosphere and 100% humidity. At the end of this time, the adherent cells are fixed to the plate by means of trichloroacetic acid, and after a number of washes, the cell layer is treated with the protein stain Sulforhodamine B. The optical density which is proportional to protein mass, is then read by automated spectrophotometric plate readers at a wavelength of 515 nm.

[2] = system: OVCAR 8; assay: NCI in vitro 60 human tumor cell line assay; assay type: cell-based; details: OVCAR-8, 48 h, read-out: Total Growth Inhibition (TGI)
Procedure: as §1

[3] = system: SF 268; assay: NCI in vitro 60 human tumor cell line assay; assay type: cell-based; details: SF-268, 48 h, read-out: Total Growth Inhibition (TGI)
Procedure: as §1

[4] = Lactone stability in whole blood (HPLC); assay type: in vitro ADME; details: human, whole blood, 1 μM, 37°C, lactone peak area relative to zero time (100%); read-out: Lactone Stability in Whole Blood (after 3 hours)
Procedure: 2. Lactone Stability in whole blood:
2 ml of blood from a healthy volunteer was collected in a tube containing 40 µl of heparin (572 IU) to prevent coagulation, 4 mM and 40 µM working solutions of the drug in DMSO were prepared and added to aliquots of whole blood to give final concentration of 100 µM and 1 µM respectively. The drug is incubated in whole blood at 37°C and 20 µl samples are collected into 180 µl of chilled methanol (-30°C) at different time intervals (0, 1, 2 & 3 hrs). Vortex and then centrifuge at 11000 rpm for 3 min in a microcentrifuge at room temperature. Dilute 100 µl of the supernatant with water to 300-500 µl depending upon the signal response (UV for 100 µM concentration and fluoroscence for 1 µM concentration) of the compound. 200 µl of the diluted sample is injected on to the HPLC column previously equilibrated with the mobile phase. The area under peak corrsponding to lactone forms is measured. Zero time peak area is taken as 100%, and the proportion of lactone peak area at different time points is calculated to determine the equilibrium lactone stability as obtained by consistent lactone proportion over two successive time points. (Biochemistry, 1994; 33:10325-10336 and J. Pharm. Sci., 1995; 84:518-519).

[5] = system: H 322M; assay: NCI in vitro 60 human tumor cell line assay; assay type: cell-based; details: NCI-H322M, 48 h, read-out: Total Growth Inhibition (TGI)
Procedure: (§2) Each test compound was screened against a battery of 60 human cell lines obtained from eight organs. In a typical procedure, the cell suspensions that were diluted according to the particular cell type and the expected target cell density (5000-40,000 cells per well based on cell growth characteristics) were added into 96-well microtiter plates. Inoculates were allowed a preincubation period of 24h at 37°C. for stabilization. Dilutions at twice the intended test concentrations were added at time zero in 100-µl aliquots to microtiter plate wells. Usually test compounds were evaluated at five 10-fold dilutions. The highest well concentration used in the test is 10^-4M. The cells are then incubated in the presence of drug (the test compound) for further 48h in 5% CO2 atmosphere and 100% humidity. At the end of this time, the adherent cells are fixed to the plate by means of trichloroacetic acid, and after a number of washes, the cell layer is treated with the protein stain Sulforhodamine B. The optical density which is proportional to protein mass, is then read by automated spectrophotometric plate readers at a wavelength of 515 nm. Readings are transferred to a microcomputer and final reports are generated using especially developed software.

[6] = system: EKVX; assay: NCI in vitro 60 human tumor cell line assay; assay type: cell-based; details: 48 h, read-out: Total Growth Inhibition (TGI)
Procedure: as §2

[7] = system: UO 31; assay: NCI in vitro 60 human tumor cell line assay; assay type: cell-based; details: UO-31, 48 h, read-out: Total Growth Inhibition (TGI)
Procedure: as §2

[8] = system: U 251; assay: NCI in vitro 60 human tumor cell line assay; assay type: cell-based; details: U-251, 48 h, read-out: Total Growth Inhibition (TGI)
Procedure: as §2

[9] = system: MCF 7/ ADR; assay: NCI in vitro 60 human tumor cell line assay; assay type: cell-based; details: Homo sapiens, NCI/ADR-RES, 48 h, read-out: Total Growth Inhibition (TGI)
Procedure: as §2

[10] = system: MDA-N; assay: NCI in vitro 60 human tumor cell line assay; assay type: cell-based; details: BREAST, 48h, read-out: Total Growth Inhibition (TGI)
Procedure: as §1

[11] = system: BT 549; assay: NCI in vitro 60 human tumor cell line assay; assay type: cell-based; details: BT-549, 48 h, read-out: Total Growth Inhibition (TGI)
Procedure: as §2

[12] = system: KM 12; assay: NCI in vitro 60 human tumor cell line assay; assay type: cell-based; details: KM12, 48 h, read-out: Total Growth Inhibition (TGI)
Procedure: as §2

[13] = system: T 47D; assay: NCI in vitro 60 human tumor cell line assay; assay type: cell-based; details: T47D, 48 h, read-out: Total Growth Inhibition (TGI)
Procedure: as §2

[14] = system: COLO 205; assay: NCI in vitro 60 human tumor cell line assay; assay type: cell-based; details: COLO 205, 48 h, read-out: Total Growth Inhibition (TGI)
Procedure: as §2

[15] = system: HCT 116; assay: NCI in vitro 60 human tumor cell line assay; assay type: cell-based; details: HCT-116, 48 h, read-out: Total Growth Inhibition (TGI)
[16] = system: H 226; assay: NCI in vitro 60 human tumor cell line assay; assay type: cell-based; details: NCI-H226, 48 h, read-out: Total Growth Inhibition (TGI)
Procedure: as §2

[17] = system: H 522; assay: NCI in vitro 60 human tumor cell line assay; assay type: cell-based; details: NCI-H522, 48 h, read-out: Total Growth Inhibition (TGI)
Procedure: as §2

[18] = system: MDA-MB-435; assay: NCI in vitro 60 human tumor cell line assay; assay type: cell-based; details: MDA-MB-435, 48 h, read-out: Total Growth Inhibition (TGI)
[19] = system: NCI's 60 human tumor cell line assay; assay: cells; assay type: cell-based; details: 60 cell, 48 h, read-out: IC50 (mean GI50 against NCI's 60 human tumor cell line assay)
Procedure: as §2

[20] = system: H 23; assay: NCI in vitro 60 human tumor cell line assay; assay type: cell-based; details: NCI-H23, 48 h, read-out: Total Growth Inhibition (TGI)
Procedure: as §2

[21] = system: HOP 62; assay: NCI in vitro 60 human tumor cell line assay; assay type: cell-based; details: HOP-62, 48 h, read-out: Total Growth Inhibition (TGI)

CC[C@@]1(O)C(=O)OCc2c1cc1n(c2=O)C(OCCO)c2cc3ccccc3nc2-1 (stereo partly drawn) [Example 26, 5-(2'-Hydroxyethoxy)camptothecin]
IC (TGI) [1]: 3.8 µM | IC (TGI) [2]: 13.4 µM | IC (TGI) [3]: 30.9 µM | remaining at 3 h, 1 µM [4]: 5.3% | IC (TGI) [5]: 31.6 µM | IC (TGI) [6]: 63 µM | IC (TGI) [7]: 3.89 µM | IC (TGI) [8]: 7.58 µM

CC[C@@]1(O)C(=O)OCc2c1cc1n(c2=O)C(OCC(F)(F)F)c2cc3cc(O)ccc3nc2-1 (stereo partly drawn) [Example 27, 10-Hydroxy-5-trifluoroethoxycamptothecin]
IC (TGI) [9]: 1.25 µM | IC (TGI) [10]: 11 µM | IC (TGI) [11]: 11.4 µM | IC (TGI) [12]: 10.6 µM | IC (TGI) [13]: 0.81 µM | IC (TGI) [14]: 19.5 µM | IC (TGI) [15]: 4.06 µM | IC (TGI) [16]: 4.75 µM | IC (TGI) [17]: 7.66 µM | IC (TGI) [18]: 9.62 µM | mean GI50 [19]: 380 nM | IC (TGI) [20]: 0.91 µM | IC (TGI) [21]: 4.95 µM
